Target: T1, AdipoR1 (Homo sapiens, UniProt Q96A54)
T1 sequence (Q96A54 1-375): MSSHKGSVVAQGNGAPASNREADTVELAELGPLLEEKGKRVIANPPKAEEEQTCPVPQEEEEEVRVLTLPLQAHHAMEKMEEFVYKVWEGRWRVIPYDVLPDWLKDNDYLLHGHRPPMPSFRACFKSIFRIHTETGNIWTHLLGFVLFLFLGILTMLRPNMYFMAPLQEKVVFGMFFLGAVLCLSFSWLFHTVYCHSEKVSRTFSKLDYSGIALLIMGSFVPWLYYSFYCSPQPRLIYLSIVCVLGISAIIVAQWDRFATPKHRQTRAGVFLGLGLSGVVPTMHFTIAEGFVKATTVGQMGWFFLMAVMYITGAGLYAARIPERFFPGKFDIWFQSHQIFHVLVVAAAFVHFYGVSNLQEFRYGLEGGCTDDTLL
Experiment: Measurement of AMPK phosphorylation ability (Assay 1), HEK 293T cells, Western blotting
Type: cell-based
Parameters: HEK 293T cells (ATCC; CRL-3216, medium; host or cells: HEK 293T
Conditions: 10 minutes
Description: The AMPK phosphorylation ability of the respective compounds according to the present invention was measured by using differentiated C2C12 cells or HEK 293T cells.
HEK 293T cells (ATCC; CRL-3216, medium; DMEM, Fetal Bovine Serum (FBS)) were cultured in a 12- or 24-well plate until they reached 100% confluency (37° C., 5% CO2).
After starvation, a test compound listed in Tables 10 and 11 (concentration: 25 μM, 50 μM) was added thereto, and after 10 minutes, the medium was discarded and the plate was frozen with liquid nitrogen.
To the 12- or 24-well cell plate which had been frozen was added 100 or 150 μL of Cell lysis buffer pH 7.4 (50 mM HEPES (pH 7.4), 2 mM sodium orthovanadate, 10 mM sodium pyrophosphate, 10 mM NaF, 2 mM EDTA, 2 mM EGTA, 0.1% (v/v) NP-40, 0.2 mM PMSF), and the cells were scraped off with a cell scraper, suspended and transferred into a micro centrifugal tube. And then, the cells were ultrasonically crushed (1 second×3 times) with a sonicator. Centrifugation was performed at 4° C. at 15,000 rpm for 15 minutes, and the supernatant was recovered into a new tube.
To 100 μL of the supernatant was added 25 μL of 5× sample buffer (280 mM Tris-HCl (pH 6.9), 40% glycerol, 10% (3-mercaptoethanol, 13% SDS, a small amount of bromophenol blue) and mixed together. The rest of the supernatant was used for protein quantification, and the protein concentrations were uniformed by adding 1× sample buffer depending on the concentration of each sample.
An electrophoresis chamber was filled with 1× SDS buffer (25 mM Tris-HCl, 250 mM glycine, 0.1% SDS), and the sample was applied to a well of polyacrylamide gel. Electrophoresis was performed until the bromophenol blue in the sample reached to the bottom of the gel.
A filter paper was soaked in 1× Transfer buffer sufficiently, above which the PVDF membrane and the gel after electrophoresis were stacked in this order, and thereabove a filter paper which had been soaked in 1× Transfer buffer sufficiently was further stacked, from which an air was removed and the resultant was set in semi-dry type transfer apparatus and transferred (7V, 35 minutes).
An unnecessary portion of the blotted membrane was cutoff, and the rest was immediately soaked in blocking buffer (5% skimmed milk in Rinse buffer), and shaken at room temperature at 40 rpm for 3 hours.
After blocking, the membrane was transferred into Rinse buffer, and washed at room temperature for 10 minutes while shaking. The membrane was soaked in a primary antibody solution (AMPK alpha Antibody (Cell signaling; #2532) 1/1,000 in Rinse buffer, Phospho-AMPK alpha (Thr172) (40H9) antibody (Cell signaling; #2535) 1/1,000 in Rinse buffer), and shaken at 4° C. at 40 rpm overnight.
The membrane was soaked in a secondary antibody solution (goat anti-rabbit IgG-HRP Antibody (Santa Cruz; sc-2030) 1/2,000 in Rinse buffer), and shaken at room temperature at 40 rpm for 1 hour.
After the membrane was washed for 45 minutes in the same way as after the primary antibody reaction, the membrane was soaked in a chemiluminescent reaction solution (ECL Western Blotting Detection Reagents, GE Healthcare) for about 1 minute. An excess of the reaction solution was removed, and then the membranes were arranged on a transparent film and sandwiched with it, with which an X-ray film was exposed in a darkroom (for about several seconds to 60 seconds) to develop the film.
The X-ray film was scanned to take the image, for which the band was measured by using the image analysis software “Image J” to determine the respective amounts of pAMPK and AMPK.

Cc1ccc(C(=O)N2CCC(NC(=O)COc3ccc(C4SCCCS4)cc3)CC2)cc1 [Compound 29]
pAMPK/AMPK (%) (25 μM): 72.45% | pAMPK/AMPK (%) (50 μM): 74.42%

CCCOc1ccc(OCC(=O)NC2CCN(C(=O)c3ccc(C)cc3)CC2)cc1 [Compound 42]
pAMPK/AMPK (%) (25 μM): 69.97% | pAMPK/AMPK (%) (50 μM): 89.62%

COc1ccccc1CN1CCC(NC(=O)COc2ccc(C)cc2)CC1 [Compound 4]
pAMPK/AMPK (%) (25 μM): 47.44% | pAMPK/AMPK (%) (50 μM): 45.44%

CCC(=O)c1ccc(OCC(=O)NC2CCN(Cc3ccc(Cl)c(Cl)c3)CC2)cc1 [Compound 17]
pAMPK/AMPK (%) (25 μM): 88.72% | pAMPK/AMPK (%) (50 μM): 75.82%

CCC(=O)c1ccc(OCC(=O)NC2CCN(Cc3ccccc3)CC2C)cc1 (stereo not shown) [Compound 18]
pAMPK/AMPK (%) (25 μM): 59.58% | pAMPK/AMPK (%) (50 μM): 72.81%

COc1ccc(CN2CCN(C(=O)CCNC(=O)c3ccccc3C)CC2)cc1OC [Compound 50]
pAMPK/AMPK (%) (25 μM): 39.00% | pAMPK/AMPK (%) (50 μM): 71.13%

Cc1ccccc1CN1CCN(C(=O)CCNC(=O)c2ccc([N+](=O)[O-])cc2)CC1 [Compound 63]
pAMPK/AMPK (%) (25 μM): 65.40% | pAMPK/AMPK (%) (50 μM): 68.22%

COc1ccc(CN2CCC(NC(=O)COc3ccc([N+](=O)[O-])cc3)CC2)cc1F [Compound 24]
pAMPK/AMPK (%) (25 μM): 23.68% | pAMPK/AMPK (%) (50 μM): 60.46%

Cc1cc(OCC(=O)NC2CCN(C(N)=O)CC2)ccc1C(C)C [Compound 3]
pAMPK/AMPK (%) (25 μM): 39.02% | pAMPK/AMPK (%) (50 μM): 44.32%

CCc1ccc(OCC(=O)NC2CCN(Cc3ccc(OC)c(F)c3)CC2)cc1 [Compound 5]
pAMPK/AMPK (%) (25 μM): 69.72% | pAMPK/AMPK (%) (50 μM): 62.88%

COc1ccc(CN2CCN(C(=O)CCNC(=O)c3ccccc3)CC2)c(OC)c1OC [Compound 51]
pAMPK/AMPK (%) (25 μM): 33.33% | pAMPK/AMPK (%) (50 μM): 55.14%

CCOc1ccc(OCC(=O)NC2CCN(Cc3ccccc3C)CC2)cc1 [Compound 39]
pAMPK/AMPK (%) (25 μM): 64.98% | pAMPK/AMPK (%) (50 μM): 61.18%

O=C(NCCC(=O)N1CCN(Cc2cccc(C(F)(F)F)c2)CC1)c1ccc([N+](=O)[O-])cc1 [Compound 67]
pAMPK/AMPK (%) (25 μM): 70.98% | pAMPK/AMPK (%) (50 μM): 70.70%

CC1CN(Cc2ccccc2)CCC1NC(=O)COc1ccc(N2CCCC2=O)cc1 (stereo not shown) [Compound 26]
pAMPK/AMPK (%) (25 μM): 55.06% | pAMPK/AMPK (%) (50 μM): 56.65%

CCOc1ccccc1C(=O)N1CCC(NC(=O)OCc2ccc([N+](=O)[O-])cc2)CC1 [Compound 23]
pAMPK/AMPK (%) (25 μM): 51.41% | pAMPK/AMPK (%) (50 μM): 49.81%

CCOc1ccc(C(=O)N2CCC(NC(=O)COc3ccc(N4CCCC4=O)cc3)CC2)cc1 [Compound 27]
pAMPK/AMPK (%) (25 μM): 45.54% | pAMPK/AMPK (%) (50 μM): 37.30%

COc1ccc(CN2CCN(C(=O)CCNC(=O)c3ccc([N+](=O)[O-])cc3)CC2)cc1 [Compound 65]
pAMPK/AMPK (%) (25 μM): 62.79% | pAMPK/AMPK (%) (50 μM): 69.84%

COc1ccc(CN2CCN(C(=O)CCNC(=O)c3ccc(Br)cc3)CC2)cc1OC [Compound 59]
pAMPK/AMPK (%) (25 μM): 74.09% | pAMPK/AMPK (%) (50 μM): 78.14%

COc1ccccc1CN1CCN(C(=O)CCNC(=O)c2ccc(Br)cc2)CC1 [Compound 58]
pAMPK/AMPK (%) (25 μM): 41.20% | pAMPK/AMPK (%) (50 μM): 62.58%

CC(=O)c1ccc(OCC(=O)NC2CCN(Cc3ccccc3)CC2C)cc1 (stereo not shown) [Compound 14]
pAMPK/AMPK (%) (25 μM): 63.62% | pAMPK/AMPK (%) (50 μM): 51.87%

CCCOc1ccc(OCC(=O)NC2CCN(Cc3ccccc3)C(C)C2)cc1 (stereo not shown) [Compound 41]
pAMPK/AMPK (%) (25 μM): 62.03% | pAMPK/AMPK (%) (50 μM): 69.38%

Cc1cccc(CN2CCC(NC(=O)COc3ccc(C4SCCCS4)cc3)CC2)c1 [Compound 28]
pAMPK/AMPK (%) (25 μM): 71.21% | pAMPK/AMPK (%) (50 μM): 78.89%

COc1cc(C(C)=O)ccc1OCC(=O)NC1CCN(C(C)c2ccccc2)CC1 (stereo not shown) [Compound 13]
pAMPK/AMPK (%) (25 μM): 40.65% | pAMPK/AMPK (%) (50 μM): 39.95%

O=C(COc1ccc(I)cc1)NC1CCN(Cc2ccccc2)CC1 [Compound 10]
pAMPK/AMPK (%) (25 μM): 83.62% | pAMPK/AMPK (%) (50 μM): 72.56%

COc1cccc(C(=O)N2CCN(CCC(=O)NC3CC3)CC2)c1 [Compound 72]
pAMPK/AMPK (%) (25 μM): 42.05% | pAMPK/AMPK (%) (50 μM): 46.92%

CC(C)(C)c1ccc(C(=O)NCCC(=O)N2CCN(Cc3cccc(O)c3)CC2)cc1 [Compound 52]
pAMPK/AMPK (%) (25 μM): 66.63% | pAMPK/AMPK (%) (50 μM): 85.17%

CCOc1ccc(CN2CCN(C(=O)CCNC(=O)c3ccc(F)cc3Cl)CC2)cc1 [Compound 61]
pAMPK/AMPK (%) (25 μM): 78.20% | pAMPK/AMPK (%) (50 μM): 76.51%

O=C(NCCC(=O)N1CCN(Cc2cccc(O)c2)CC1)c1ccc(Cl)cc1 [Compound 54]
pAMPK/AMPK (%) (25 μM): 57.51% | pAMPK/AMPK (%) (50 μM): 33.78%

CCCOc1ccc(OCC(=O)NC2CCN(C(=O)c3ccc(OCC)cc3)CC2)cc1 [Compound 44]
pAMPK/AMPK (%) (25 μM): 72.14% | pAMPK/AMPK (%) (50 μM): 78.77%

COc1ccc(CN2CCN(C(=O)CCNC(=O)c3ccc(Cl)cc3)CC2)c(OC)c1OC [Compound 60]
pAMPK/AMPK (%) (25 μM): 34.44% | pAMPK/AMPK (%) (50 μM): 76.81%

COc1ccc(CN2CCN(C(=O)CCNC(=O)c3ccc(F)cc3F)CC2)cc1OC [Compound 62]
pAMPK/AMPK (%) (25 μM): 72.75% | pAMPK/AMPK (%) (50 μM): 80.92%

COc1ccccc1CN1CCN(C(=O)CCNC(=O)c2ccc(Cl)cc2)CC1 [Compound 57]
pAMPK/AMPK (%) (25 μM): 30.26% | pAMPK/AMPK (%) (50 μM): 45.31%

O=C(NCCC(=O)N1CCN(Cc2ccc(F)cc2Cl)CC1)c1ccc(Cl)cc1 [Compound 55]
pAMPK/AMPK (%) (25 μM): 61.64% | pAMPK/AMPK (%) (50 μM): 105.20%

CC(c1ccccc1)N1CCC(NC(=O)COc2ccc(-c3ccccc3)cc2)CC1 (stereo not shown) [Compound 7]
pAMPK/AMPK (%) (25 μM): 79.86% | pAMPK/AMPK (%) (50 μM): 94.13%

CC(C)(C)c1ccc(OCC(=O)NC2CCN(Cc3ccc(F)cc3)CC2)cc1 [Compound 6]
pAMPK/AMPK (%) (25 μM): 24.57% | pAMPK/AMPK (%) (50 μM): 60.56%

COc1ccc(CN2CCN(C(=O)CCNC(=O)c3ccc([N+](=O)[O-])cc3)CC2)cc1F [Compound 68]
pAMPK/AMPK (%) (25 μM): 53.92% | pAMPK/AMPK (%) (50 μM): 45.94%

Cc1ccccc1CN1CCC(NC(=O)COc2ccc(C(C)C)cc2)CC1 [Compound 1]
pAMPK/AMPK (%) (25 μM): 70.10% | pAMPK/AMPK (%) (50 μM): 63.92%

NC(=O)c1ccc(OCC(=O)NC2CCN(Cc3ccc(F)c(F)c3)CC2)cc1 [Compound 20]
pAMPK/AMPK (%) (25 μM): 47.30% | pAMPK/AMPK (%) (50 μM): 60.30%

CCOc1ccc(C(=O)N2CCC(NC(=O)COc3ccc([N+](=O)[O-])cc3)CC2)cc1 [Compound 22]
pAMPK/AMPK (%) (25 μM): 61.45% | pAMPK/AMPK (%) (50 μM): 67.26%

O=C(COc1ccc(N2CCCC2=O)cc1)NC1CCN(C(=O)c2ccccc2F)CC1 [Compound 25]
pAMPK/AMPK (%) (25 μM): 40.07% | pAMPK/AMPK (%) (50 μM): 42.87%

CCC(=O)c1ccc(OCC(=O)NC2CCN(Cc3ccccc3C)CC2)cc1 [Compound 16]
pAMPK/AMPK (%) (25 μM): 55.49% | pAMPK/AMPK (%) (50 μM): 46.30%

COc1ccccc1CN1CCN(C(=O)CCNC(=O)c2ccccc2C)CC1 [Compound 49]
pAMPK/AMPK (%) (25 μM): 42.40% | pAMPK/AMPK (%) (50 μM): 34.07%

COc1ccccc1CN1CCN(C(=O)CCNC(=O)c2ccc3ccccc3c2)CC1 [Compound 71]
pAMPK/AMPK (%) (25 μM): 78.18% | pAMPK/AMPK (%) (50 μM): 65.40%

COc1ccc(OC)c(CN2CCN(C(=O)CCNC(=O)c3ccc([N+](=O)[O-])cc3)CC2)c1 [Compound 66]
pAMPK/AMPK (%) (25 μM): 43.00% | pAMPK/AMPK (%) (50 μM): 55.80%
